According to patent US8906904B2, “Alkoxy pyrazoles as soluble guanylate cyclase activators” (Boehringer Ingelheim International GmbH, priority 2012, dated 2014):
Converted amounts (≈) assume the structure as drawn.

Assay: Assessment of solubility (McIlvaine buffers, 24 h shake, UPLC-UV)
Assay type: physicochemical
Details: kinetic from dmso stock
Outline: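 Compounds from 10 mM DMSO stocks were shaken for 24 h at room temperature in McIlvaine buffers at pH 2.2, 4.5 and 6.8 (2.5% v/v DMSO final), then filtered. Filtrates were quantified by UPLC-UV at 254 nm against a 50:50 acetonitrile/water reference assumed fully dissolved, as a single determination.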

SMILES | solubility at 24 h (pH 2.2, aqueous buffer) [µg/mL] | solubility at 24 h (pH 4.5, aqueous buffer) [µg/mL] | solubility at 24 h (pH 6.8, aqueous buffer) [µg/mL]
Cc1cccc(-c2cccc(-n3ncc(C(=O)O)c3OC(C)C)n2)c1OCc1ccc2c(c1)CCN(C1COC1)C2 [Compound 39] | 93 (≈ 168 µM) | 44 (≈ 79.3 µM) | 81 (≈ 146 µM)
CCOc1c(C(=O)O)cnn1-c1cccc(-c2cccc(C)c2OCc2ccc3c(c2)CCN(CC2(C)COC2)C3)n1 [Compound 34] | 82 (≈ 144 µM) | 65 (≈ 114 µM) | 68 (≈ 120 µM)
CCOc1c(C(=O)O)cnn1-c1cccc(-c2cccc(C)c2OCc2ccc3c(c2)CCN(C2CCOC2C)C3)n1 (stereo not drawn) [Compound 71] | 94 (≈ 165 µM) | 75 (≈ 132 µM) | 78 (≈ 137 µM)
COc1c(C(=O)O)cnn1-c1cccc(-c2cccc(C)c2OCc2ccc3c(c2)CCN(CC(C)(C)O)C3)n1 [Compound 33, 1-(6-{2-[2-(2-hydroxy-2-methyl-propyl)-1,2,3,4-tetrahydro-isoquinolin-6-ylmethoxy]-3-methyl-phenyl}-pyridin-2-yl)-5-methoxy-1H-pyrazole-4-carboxylic acid] | 93 (≈ 171 µM) | 73 (≈ 135 µM) | 75 (≈ 138 µM)
COc1c(C(=O)O)cnn1-c1cccc(-c2cccc(C)c2OCc2ccc3c(c2C)CCN(C2CCOC2)C3)n1 (stereo not drawn) [Compound 31] | 110 (≈ 198 µM) | 89 (≈ 160 µM) | 94 (≈ 169 µM)
CCOc1c(C(=O)O)cnn1-c1cccc(-c2cccc(C)c2OCc2ccc3c(c2)CCN(C2COC2)C3)n1 [Compound 6] | 90 (≈ 166 µM) | 64 (≈ 118 µM) | 81 (≈ 150 µM)
CCOc1c(C(=O)O)cnn1-c1cccc(-c2cccc(C)c2OCc2ccc3c(c2)CCN(C(C)CF)C3)n1 (stereo not drawn) [Compound 49, 5-ethoxy-1-(6-{2-[2-(2-fluoro-1-methyl-ethyl)-1,2,3,4-tetrahydro-isoquinolin-6-ylmethoxy]-3-methyl-phenyl}-pyridin-2-yl)-1H-pyrazole-4-carboxylic acid] | 92 (≈ 169 µM) | 69 (≈ 127 µM) | 58 (≈ 106 µM)
COc1c(C(=O)O)cnn1-c1cccc(-c2cccc(F)c2OCc2ccc3c(c2)CCN(C2CCOCC2)C3)n1 [Compound 63] | 110 (≈ 197 µM) | 90 (≈ 161 µM) | 92 (≈ 165 µM)
COc1c(C(=O)O)cnn1-c1cccc(-c2cccc(C)c2OCc2ccc3c(c2)CCN(C2CC(C)OC(C)C2)C3)n1 (stereo not drawn) [Compound 62] | 110 (≈ 189 µM) | 88 (≈ 151 µM) | 91 (≈ 156 µM)
CCOc1c(C(=O)O)cnn1-c1cccc(-c2cccc(Cl)c2OCc2ccc3c(c2)CCN(CCOC)C3)n1 [Compound 58] | 111 (≈ 197 µM) | 85 (≈ 151 µM) | 89 (≈ 158 µM)
COc1c(C(=O)O)cnn1-c1cccc(-c2cccc(C)c2OCc2ccc3c(c2)CCN(C2CCC(F)(F)CC2)C3)n1 [Compound 5] | 98 (≈ 166 µM) | 76 (≈ 129 µM) | 72 (≈ 122 µM)
CCOc1c(C(=O)O)cnn1-c1cccc(-c2cccc(C)c2OCc2ccc3c(c2)CCN(C(C)C)C3)n1 [Compound 32] | 91 (≈ 173 µM) | 73 (≈ 139 µM) | 78 (≈ 148 µM)
COc1c(C(=O)O)cnn1-c1cccc(-c2cc(F)cc(F)c2OCc2ccc3c(c2)CCN(C2CCOCC2)C3)n1 [Compound 53] | 84 (≈ 146 µM) | 65 (≈ 113 µM) | 70 (≈ 121 µM)
Cc1cccc(-c2cccc(-n3ncc(C(=O)O)c3OC(C)C)n2)c1OCc1ccc2c(c1C)CCN(C(C)C)C2 [Compound 43] | 95 (≈ 171 µM) | 79 (≈ 142 µM) | 82 (≈ 148 µM)
CCOc1c(C(=O)O)cnn1-c1cccc(-c2cccc(C)c2OCc2ccc3c(c2)CCN(C(C)CS(C)(=O)=O)C3)n1 (stereo not drawn) [Compound 70] | 86 (≈ 142 µM) | 57 (≈ 94.3 µM) | 64 (≈ 106 µM)
CCOc1c(C(=O)O)cnn1-c1cccc(-c2cccc(C)c2OCc2ccc3c(c2)CCN(C2CCOC2)C3)n1 (stereo not drawn) [Compound 35] | 93 (≈ 168 µM) | 73 (≈ 132 µM) | 78 (≈ 141 µM)

Next, values leading:

solubility at 24 h (pH 2.2, aqueous buffer) [µg/mL] | solubility at 24 h (pH 4.5, aqueous buffer) [µg/mL] | solubility at 24 h (pH 6.8, aqueous buffer) [µg/mL] | SMILES
93 (≈ 158 µM) | 67 (≈ 114 µM) | 75 (≈ 127 µM) | CCOc1c(C(=O)O)cnn1-c1cccc(-c2cccc(C)c2OCc2ccc3c(c2)CCN(CC2CC(F)(F)C2)C3)n1 [Compound 96]
120 (≈ 202 µM) | 93 (≈ 156 µM) | 90 (≈ 151 µM) | COc1c(C(=O)O)cnn1-c1cccc(-c2cccc(C)c2OCc2ccc3c(c2)CCN(C2C4CCOC4C2(C)C)C3)n1 (stereo not drawn) [Compound 75]
120 (≈ 234 µM) | 96 (≈ 187 µM) | 110 (≈ 215 µM) | COc1c(C(=O)O)cnn1-c1cccc(-c2cccc(C)c2OCc2ccc3c(c2)CN(C2COC2)C3)n1 [Compound 85]
44 (≈ 78.5 µM) | 46 (≈ 82.1 µM) | 67 (≈ 120 µM) | COc1c(C(=O)O)cnn1-c1cccc(-c2cccc(C)c2OCc2ccc3c(c2)CCN(CC2CC2(F)F)C3)n1 (stereo not drawn) [Compound 72, 1-(6-{2-[2-(2,2-difluoro-cyclopropylmethyl)-1,2,3,4-tetrahydro-isoquinolin-6-ylmethoxy]-3-methyl-phenyl}-pyridin-2-yl)-5-methoxy-1H-pyrazole-4-carboxylic acid]
110 (≈ 191 µM) | 83 (≈ 144 µM) | 95 (≈ 165 µM) | COc1c(C(=O)O)cnn1-c1cccc(-c2cccc(C)c2OCc2ccc3c(c2)CCN(CCS(C)(=O)=O)C3)n1 [Compound 74]
100 (≈ 171 µM) | 84 (≈ 144 µM) | 79 (≈ 135 µM) | COc1c(C(=O)O)cnn1-c1cccc(-c2cccc(C)c2OCc2ccc3c(c2)CCN(C2CCOCC2OC)C3)n1 (stereo not drawn) [Compound 81]
100 (≈ 168 µM) | 87 (≈ 146 µM) | 89 (≈ 149 µM) | CCOc1c(C(=O)O)cnn1-c1cccc(-c2cccc(C)c2OCc2ccc3c(c2)CCN(C2CCOC(CC)C2)C3)n1 (stereo not drawn) [Compound 79]
98 (≈ 165 µM) | 77 (≈ 130 µM) | 81 (≈ 136 µM) | COc1c(C(=O)O)cnn1-c1cccc(-c2cccc(C(F)(F)F)c2OCc2ccc3c(c2)CN(C2CCOCC2)C3)n1 [Compound 93]
